US12577231B2, “Androgen receptor PROTACS” (GlaxoSmithKline Intellectual Property Development Limited, priority 2023, dated 2026)

molecular target: T1, Androgen Receptor dual T878A/L702H mutant protein (Homo sapiens, UniProt P10275, L702H/T878A); test: Dual Mutant (T878A/L702H) Androgen Receptor Degradation Assay (HTRF, MDA-PCa-2b cells); format: cell-based; details: 18 h, 18 h incubation, read-out: mean asymptote max
T1 construct: host or cells: MDA-PCa-2b
T1 sequence (P10275 1-920 L702H/T878A): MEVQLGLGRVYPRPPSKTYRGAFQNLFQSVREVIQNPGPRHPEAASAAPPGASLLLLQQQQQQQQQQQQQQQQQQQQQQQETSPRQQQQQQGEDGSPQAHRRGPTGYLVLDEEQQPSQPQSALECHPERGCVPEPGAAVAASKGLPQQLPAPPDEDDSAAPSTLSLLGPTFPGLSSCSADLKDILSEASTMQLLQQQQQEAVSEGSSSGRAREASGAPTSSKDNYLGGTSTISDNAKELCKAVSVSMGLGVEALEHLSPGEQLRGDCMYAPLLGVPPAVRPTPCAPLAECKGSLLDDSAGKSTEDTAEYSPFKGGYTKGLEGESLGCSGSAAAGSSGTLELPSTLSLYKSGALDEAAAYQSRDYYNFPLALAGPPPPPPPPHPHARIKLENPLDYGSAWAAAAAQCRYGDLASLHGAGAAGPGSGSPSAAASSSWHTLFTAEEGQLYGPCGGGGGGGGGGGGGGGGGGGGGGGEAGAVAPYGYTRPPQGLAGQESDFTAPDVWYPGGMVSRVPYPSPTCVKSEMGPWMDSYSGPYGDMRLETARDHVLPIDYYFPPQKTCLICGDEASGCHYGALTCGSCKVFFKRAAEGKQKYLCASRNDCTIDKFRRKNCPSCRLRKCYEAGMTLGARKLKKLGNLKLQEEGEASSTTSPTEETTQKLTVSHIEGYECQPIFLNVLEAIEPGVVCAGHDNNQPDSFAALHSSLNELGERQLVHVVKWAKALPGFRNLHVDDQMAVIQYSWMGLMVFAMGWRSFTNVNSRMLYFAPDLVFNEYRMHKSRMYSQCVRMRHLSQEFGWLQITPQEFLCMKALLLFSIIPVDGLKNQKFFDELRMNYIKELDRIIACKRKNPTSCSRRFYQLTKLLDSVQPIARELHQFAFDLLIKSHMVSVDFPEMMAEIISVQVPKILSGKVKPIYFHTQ
Protocol: Degradation of Androgen Receptor dual T878A/L702H mutant protein in human MDA-PCa-2b (ATCC) cells treated with PROTACs was quantified using the HTRF Human Androgen Receptor Detection Kit (PerkinElmer) in 384 well assay plate format. 10 mM DMSO (Sigma-Aldrich) stock solutions of PROTACs were prepared and diluted across an 11 concentration, 3-fold increment range, and 25 nL dispensed into a white opaque bottomed 384 well assay plate (Thermofisher) using an acoustic ECHO dispenser (Labcyte). Cells were cultured in growth medium (BRFF—HPC-1 (Athena ES) supplemented with 20% FBS (Gibco), penicillin 50U/mL and streptomycin 50 μg/mL (Gibco, #15140-122)) in collagen I or poly-D-lysine coated T175 flasks (Corning, #356487 or #356539, respectively). For the assay, cells were harvested from the flask, centrifuged at 200 g for 5 min and then resuspended in the growth medium. 25 μl of cell suspension containing 10,000 cells was dispensed into each well of the assay plate containing the test compounds, which was then incubated for 18 h at 37° C./5% CO2. Control wells were included on each assay plate, with assay medium without cells being the no AR remaining 100% effect control, and cells treated with DMSO vehicle only, without PROTAC, the 0% effect control. After 18 h incubation 8 μl of supplemented lysis buffer from HTRF kit was added to each well and the plate shaken at 500 rpm for 1 h at room temperature. 8 μl of antibody mix in Detection buffer from HTRF kit was added to each well and the plate was incubated for 2 h in dark at mom temperature. The fluorescence was measured at both 620 nm and 665 nm using an excitation wavelength of 337 nm with a PHERAstar microplate reader (BMG Labtech) and the % AR protein remaining in each well was calculated by normalising the HTRF ratio (665 nm signal/620 nm signal) value to the control wells mentioned above. Parameters corresponding to the potency and efficacy estimates of the PROTACs were obtained from these normalised values using curve fitting software (IDBS ActivityBase). These included the DC50 and the Dmax estimates. Two versions of the DC50, called relative DC50 and absolute DC50, were typically generated. These are the inflection point of a fitted 4 parameter sigmoidal response curve and the interpolated concentration of PROTAC corresponding to 50% of the protein being degraded, respectively. The Dmax parameter was the maximum experimentally observed degradation and the asymptote max parameter the fitted response curve asymptote maximum.

| SMILES | Dmax |
| --- | --- |
| CC1(C)[C@H](NC(=O)c2ccc(N3CCC(CN4CC[C@H](n5ncc6c(N7CCC(=O)NC7=O)cccc65)[C@H](F)C4)CC3)c(F)c2)C(C)(C)[C@H]1Oc1ccc(C#N)c2ncccc12 [Example 46, N-((1r,3r)-3-((8-Cyanoquinolin-5-yl)oxy)-2,2,4,4-tetramethylcyclobutyl)-4-(4-(((3R,4S)-4-(4-(2,4-dioxotetrahydropyrimidin-1(2H)-yl)-1H-indazol-1-yl)-3-fluoropiperidin-1-yl)methyl)piperidin-1-yl)-3-fluorobenzamide] | ≥ 50% |
| CC1(C)[C@H](NC(=O)c2ccc(N3CCC(CN4CCC(n5ncc6c(N7CCC(=O)NC7=O)cccc65)CC4)CC3)c(F)c2)C(C)(C)[C@H]1Oc1cnc(C#N)c(Cl)c1 [Example 3, N-((1r,3r)-3-((5-Chloro-6-cyanopyridin-3-yl)oxy)-2,2,4,4-tetramethylcyclobutyl)-4-(4-((4-(4-(2,4-dioxotetrahydropyrimidin-1(2H)-yl)-1H-indazol-1-yl)piperidin-1-yl)methyl)piperidin-1-yl)-3-fluorobenzamide] | ≥ 50% |
| CC1(C)[C@H](NC(=O)c2ccc(N3CCC(CN4CCC(n5ncc6c(N7CCC(=O)NC7=O)c(F)ccc65)CC4)CC3)c(F)c2)C(C)(C)[C@H]1Oc1ccc(C#N)c(Cl)c1 [Example 13, N-((1r,3r)-3-(3-Chloro-4-cyanophenoxy)-2,2,4,4-tetramethylcyclobutyl)-4-(4-((4-(4-(2,4-dioxotetrahydropyrimidin-1(2H)-yl)-5-fluoro-1H-indazol-1-yl)piperidin-1-yl)methyl)piperidin-1-yl)-3-fluorobenzamide] | ≥ 50% |
| COc1c(C#N)ccc(O[C@H]2C(C)(C)[C@H](NC(=O)c3ccc(N4CCC(CN5CCC(n6ncc7c(N8CCC(=O)NC8=O)cccc76)CC5)CC4)c(F)c3)C2(C)C)c1C [Example 5, N-((1r,3r)-3-(4-Cyano-3-methoxy-2-methylphenoxy)-2,2,4,4-tetramethylcyclobutyl)-4-(4-((4-(4-(2,4-dioxotetrahydropyrimidin-1(2H)-yl)-1H-indazol-1-yl)piperidin-1-yl)methyl)piperidin-1-yl)-3-fluorobenzamide] | ≥ 50% |
| CC1(C)[C@H](NC(=O)c2ccc(N3CCC(CN4CCC(n5ncc6c(N7CCC(=O)NC7=O)cc(F)cc65)CC4)CC3)c(F)c2)C(C)(C)[C@H]1Oc1ccc(C#N)c2ncccc12 [Example 38, N-((1r,3r)-3-((8-Cyanoquinolin-5-yl)oxy)-2,2,4,4-tetramethylcyclobutyl)-4-(4-((4-(4-(2,4-dioxotetrahydropyrimidin-1(2H)-yl)-6-fluoro-1H-indazol-1-yl)piperidin-1-yl)methyl)piperidin-1-yl)-3-fluorobenzamide] | ≥ 50% |
| CC1(C)[C@H](NC(=O)c2ccc(N3CCC(CN4CCC(n5ncc6c(N7CCC(=O)NC7=O)c(F)ccc65)CC4)CC3)c(F)c2)C(C)(C)[C@H]1Oc1ccc(C#N)c2ncccc12 [Example 50, N-((1r,3r)-3-((8-Cyanoquinolin-5-yl)oxy)-2,2,4,4-tetramethylcyclobutyl)-4-(4-((4-(4-(2,4-dioxotetrahydropyrimidin-1(2H)-yl)-5-fluoro-1H-indazol-1-yl)piperidin-1-yl)methyl)piperidin-1-yl)-3-fluorobenzamide] | ≥ 50% |
| COc1cc(O[C@H]2C(C)(C)[C@H](NC(=O)c3ccc(N4CCC(CN5CCC(n6ccc7c(N8CCC(=O)NC8=O)cccc76)CC5)CC4)cc3)C2(C)C)ccc1C#N [Example 16, N-((1r,3r)-3-(4-Cyano-3-methoxyphenoxy)-2,2,4,4-tetramethylcyclobutyl)-4-(4-((4-(4-(2,4-dioxotetrahydropyrimidin-1(2H)-yl)-1H-indol-1-yl)piperidin-1-yl)methyl)piperidin-1-yl)benzamide] | ≥ 50% |

Next, values leading:

| Dmax | SMILES |
| --- | --- |
| ≥ 50% | CC1(C)[C@H](NC(=O)c2ccc(N3CCC(CN4CCC(n5ncc6c(N7CCC(=O)NC7=O)ccnc65)CC4)CC3)c(F)c2)C(C)(C)[C@H]1Oc1ccc(C#N)c2ncccc12 [Example 40, N-((1r,3r)-3-((8-Cyanoquinolin-5-yl)oxy)-2,2,4,4-tetramethylcyclobutyl)-4-(4-((4-(4-(2,4-dioxotetrahydropyrimidin-1(2H)-yl)-1H-pyrazolo[3,4-b]pyridin-1-yl)piperidin-1-yl)methyl)piperidin-1-yl)-3-fluorobenzamide] |
| 41% | CC1(C)[C@H](NC(=O)c2ccc(N3CCC(CN4CC[C@@H](n5ncc6c(N7CCC(=O)NC7=O)cccc65)C4)CC3)c(F)c2)C(C)(C)[C@H]1Oc1ccc(C#N)c2ncccc12 [Example 36, N-((1r,3r)-3-((8-Cyanoquinolin-5-yl)oxy)-2,2,4,4-tetramethylcyclobutyl)-4-(4-(((R)-3-(4-(2,4-dioxotetrahydropyrimidin-1(2H)-yl)-1H-indazol-1-yl)pyrrolidin-1-yl)methyl)piperidin-1-yl)-3-fluorobenzamide] |
| ≥ 50% | CC1(C)[C@H](NC(=O)c2ccc(N3CC[C@@H](CN4CCC(n5ncc6c(N7CCC(=O)NC7=O)cccc65)CC4)C3)c(F)c2)C(C)(C)[C@H]1Oc1ccc(C#N)c2ncccc12 [Example 33, N-((1r,3S)-3-((8-Cyanoquinolin-5-yl)oxy)-2,2,4,4-tetramethylcyclobutyl)-4-((S)-3-((4-(4-(2,4-dioxotetrahydropyrimidin-1(2H)-yl)-1H-indazol-1-yl)piperidin-1-yl)methyl)pyrrolidin-1-yl)-3-fluorobenzamide] |
| ≥ 50% | CC1(C)[C@H](NC(=O)c2ccc(N3CCC(CN4CCC(n5ccc6c(N7CCC(=O)NC7=O)cccc65)CC4)CC3)c(F)c2)C(C)(C)[C@H]1Oc1ccc(C#N)c2ncccc12 [Example 31, N-((1r,3r)-3-((8-Cyanoquinolin-5-yl)oxy)-2,2,4,4-tetramethylcyclobutyl)-4-(4-((4-(4-(2,4-dioxotetrahydropyrimidin-1(2H)-yl)-1H-indol-1-yl)piperidin-1-yl)methyl)piperidin-1-yl)-3-fluorobenzamide] |
| ≥ 50% | CC1(C)[C@H](NC(=O)c2ccc(N3CCC(CN4CCC(n5ccc6c(N7CCC(=O)NC7=O)c(F)ccc65)CC4)CC3)c(F)c2)C(C)(C)[C@H]1Oc1ccc(C#N)c2ncccc12 [Example 51, N-((1r,3r)-3-((8-Cyanoquinolin-5-yl)oxy)-2,2,4,4-tetramethylcyclobutyl)-4-(4-((4-(4-(2,4-dioxotetrahydropyrimidin-1(2H)-yl)-5-fluoro-1H-indol-1-yl)piperidin-1-yl)methyl)piperidin-1-yl)-3-fluorobenzamide] |
| ≥ 50% | CC1(C)[C@H](NC(=O)c2ccc(N3CCC(CN4CCC(n5ncc6c(N7CCC(=O)NC7=O)cccc65)CC4)CC3)c(Cl)c2)C(C)(C)[C@H]1Oc1ccc(C#N)c2ncccc12 [Example 44, 3-Chloro-N-((1r,3r)-3-((8-cyanoquinolin-5-yl)oxy)-2,2,4,4-tetramethylcyclobutyl)-4-(4-((4-(4-(2,4-dioxotetrahydropyrimidin-1(2H)-yl)-1H-indazol-1-yl)piperidin-1-yl)methyl)piperidin-1-yl)benzamide] |
